# Laboratory results published in ChEMBL document CHEMBL1149073, “Alkaloids from Lycopodium casuarinoides” (J Nat Prod, 1994).
# The source made the active and inactive calls. No cut-off for these calls is given here.
# Tests used:
# [1] = molecular target: Cholinesterase (Mus musculus) (UniProt Q03311); test: Inhibition of cholinesterase in mouse skeletal muscle at 2 uM/ml; assay type: tissue-based; details: Muscle tissue
# [2] = molecular target: Cholinesterase (Mus musculus) (UniProt Q03311); test: Inhibition of cholinesterase in mouse skeletal muscle at 10 uM/ml; details: Muscle tissue
# Sequence of Cholinesterase (Mus musculus) (Q03311 whole entry): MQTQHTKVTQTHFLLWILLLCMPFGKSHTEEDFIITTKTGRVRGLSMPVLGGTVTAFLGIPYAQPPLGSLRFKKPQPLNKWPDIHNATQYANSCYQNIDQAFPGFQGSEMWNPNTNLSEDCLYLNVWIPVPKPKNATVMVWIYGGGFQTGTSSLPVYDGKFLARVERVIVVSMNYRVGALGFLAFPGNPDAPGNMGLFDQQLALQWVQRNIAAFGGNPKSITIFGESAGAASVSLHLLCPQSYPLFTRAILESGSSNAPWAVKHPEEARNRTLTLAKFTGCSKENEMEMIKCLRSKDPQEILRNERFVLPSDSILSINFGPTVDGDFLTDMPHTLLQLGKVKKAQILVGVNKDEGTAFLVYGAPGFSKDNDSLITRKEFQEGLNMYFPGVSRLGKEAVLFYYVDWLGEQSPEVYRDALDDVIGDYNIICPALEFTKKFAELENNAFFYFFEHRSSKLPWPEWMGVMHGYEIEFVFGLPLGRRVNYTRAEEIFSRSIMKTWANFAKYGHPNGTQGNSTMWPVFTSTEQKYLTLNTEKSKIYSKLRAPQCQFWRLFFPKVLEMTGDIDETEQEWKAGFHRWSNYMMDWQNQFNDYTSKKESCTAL
SMILES,Activity [1],Activity [2]
C=C[C@@H]1[C@H]2C=C(C)C[C@]1(NC)c1ccc(=O)[nH]c1C2,Active,–
C=C[C@@H]1[C@H]2C=C(C)C[C@]1(N(C)C)c1ccc(=O)[nH]c1C2,–,inactive
